{
  "source": "patent US9695155B2",
  "about": "“Herbicidal substituted pyrimidinyloxy benzene compounds” (E. I. DU PONT DE NEMOURS AND COMPANY, priority 2013, dated 2017)",
  "key": {"bluegrass": {"system": "bluegrass", "assay": "Test D preemergence", "format": "in vivo, Poa annua", "settings": "Poa annua, pre-emergence, scale 0-100, read-out: Plant response rating, Bluegrass", "method_in_brief": "(§1)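 Greenhouse herbicide screen. Sowing into silt loam for preemergence application; foliar application to 2–18 cm seedlings in potting mix for postemergence. 0–100 visual control rating after 7–21 d.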"}, "lambsquarters": {"system": "lambsquarters", "assay": "Test D preemergence", "format": "in vivo, Chenopodium album", "settings": "Chenopodium album, pre-emergence, scale 0-100, read-out: Plant response rating, Lambsquarters", "method_in_brief": "as §1"}, "oilseed rape [1]": {"system": "oilseed rape", "assay": "Test D preemergence", "format": "in vivo, Brassica napus", "settings": "Brassica napus, pre-emergence, scale 0-100, read-out: Plant response rating, Oilseed Rape", "method_in_brief": "as §1"}, "speedwell [2]": {"system": "speedwell", "assay": "Test D preemergence", "format": "in vivo, Veronica persica", "settings": "Veronica persica, pre-emergence", "method_in_brief": "as §1"}, "spring wheat": {"system": "spring wheat", "assay": "Test D preemergence", "format": "in vivo, Triticum aestivum", "settings": "Triticum aestivum, pre-emergence", "method_in_brief": "as §1"}, "winter wheat": {"system": "winter wheat", "assay": "Test D preemergence", "format": "in vivo, Triticum aestivum", "settings": "Triticum aestivum, pre-emergence", "method_in_brief": "as §1"}, "Italian ryegrass": {"system": "Italian ryegrass", "assay": "Test D postemergence", "format": "in vivo, Lolium multiflorum", "settings": "Lolium multiflorum, post-emergence, scale 0 to 100 (0 no effect, 100 complete control), read-out: Plant response rating, Ryegrass, Italian", "method_in_brief": "as §1"}, "oilseed rape [3]": {"system": "oilseed rape", "assay": "Test D postemergence", "format": "in vivo, Brassica napus", "settings": "Brassica napus, post-emergence, scale 0 to 100 (0 no effect, 100 complete control), read-out: Plant response rating, Oilseed Rape", "method_in_brief": "as §1"}, "speedwell [4]": {"system": "speedwell", "assay": "Test D postemergence", "format": "in vivo, Veronica persica", "settings": "Veronica persica, post-emergence, scale 0 to 100 (0 no effect, 100 complete control), read-out: Plant response rating, Speedwell", "method_in_brief": "as §1"}, "wild oat": {"system": "wild oat", "assay": "Test D postemergence", "format": "in vivo, Avena fatua", "settings": "Avena fatua, post-emergence, scale 0 to 100 (0 no effect, 100 complete control), read-out: Plant response rating, Oat, Wild", "method_in_brief": "as §1"}, "wild radish": {"system": "wild radish", "assay": "Test D postemergence", "format": "in vivo, Raphanus raphanistrum", "settings": "Raphanus raphanistrum, post-emergence, scale 0 to 100 (0 no effect, 100 complete control), read-out: Plant response rating, Radish, Wild", "method_in_brief": "as §1"}, "fall panicum": {"system": "fall panicum", "assay": "Test E postemergence", "format": "in vivo, Panicum dichotomiflorum", "settings": "Panicum dichotomiflorum, post-emergence, read-out: Plant response rating, Panicum, Fall", "method_in_brief": "(§2)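 Test chemicals formulated in a non-phytotoxic solvent mixture containing a surfactant were applied preemergence to seeds in silt loam soil or postemergence to plants at the 1- to 4-leaf stage in potting mix. After 14 to 21 days in a greenhouse, injury was visually rated against controls on a 0-100 scale (0 = no effect, 100 = complete control).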"}, "arrowleaf sida": {"system": "arrowleaf sida", "assay": "Test E postemergence", "format": "in vivo, Sida rhombifolia", "settings": "Sida rhombifolia, post-emergence, read-out: Plant response rating, Arrowleaf Sida", "method_in_brief": "as §2"}, "dayflower": {"system": "dayflower", "assay": "Test E postemergence", "format": "in vivo, Commelina virginica", "settings": "Commelina virginica, post-emergence, read-out: Plant response rating, Dayflower, VA", "method_in_brief": "as §2"}, "[5]": {"settings": "Postemergence, 31 g ai/ha, scale 0 to 100"}, "[6]": {"settings": "Postemergence, 62 g ai/ha, scale 0 to 100"}, "[7]": {"settings": "Postemergence, 125 g ai/ha, scale 0 to 100"}, "[8]": {"settings": "Postemergence, 250 g ai/ha, scale 0 to 100"}, "[9]": {"settings": "postemergence, 16 g ai/ha, scale 0 to 100, 0 no effect, 100 complete control"}},
  "data": [
    {"smiles": "N#Cc1cccc(Oc2ncc(Br)cn2)c1-n1cc(C(F)(F)F)cn1", "note": "[Compound 59, 3-[(5-bromo-2-pyrimidinyl)oxy]-2-[4-(trifluoromethyl)-1H-pyrazol-1-yl]benzonitrile]", "values": [
      {"measurement": "pest or weed control at 31 g/ha", "setting": "bluegrass; 31 g ai/ha", "result": 5, "unit": "%"},
      {"measurement": "pest or weed control at 62 g/ha", "setting": "bluegrass; 62 g ai/ha", "result": 10, "unit": "%"},
      {"measurement": "pest or weed control at 125 g/ha", "setting": "bluegrass; 125 g ai/ha", "result": 35, "unit": "%"},
      {"measurement": "pest or weed control at 250 g/ha", "setting": "bluegrass; 250 g ai/ha", "result": 85, "unit": "%"},
      {"measurement": "pest or weed control at 31 g/ha", "setting": "lambsquarters; 31 g ai/ha", "result": 95, "unit": "%"},
      {"measurement": "pest or weed control at 62 g/ha", "setting": "lambsquarters; 62 g ai/ha", "result": 100, "unit": "%"},
      {"measurement": "pest or weed control at 125 g/ha", "setting": "lambsquarters; 125 g ai/ha", "result": 95, "unit": "%"},
      {"measurement": "pest or weed control at 250 g/ha", "setting": "lambsquarters; 250 g ai/ha", "result": 100, "unit": "%"},
      {"measurement": "plant injury at 31 g/ha", "setting": "oilseed rape [1]; 31 g ai/ha", "result": 65, "unit": "%"},
      {"measurement": "plant injury at 62 g/ha", "setting": "oilseed rape [1]; 62 g ai/ha", "result": 60, "unit": "%"},
      {"measurement": "plant injury at 125 g/ha", "setting": "oilseed rape [1]; 125 g ai/ha", "result": 100, "unit": "%"},
      {"measurement": "plant injury at 250 g/ha", "setting": "oilseed rape [1]; 250 g ai/ha", "result": 100, "unit": "%"},
      {"measurement": "pest or weed control at 31 g/ha", "setting": "speedwell [2]; 31 g ai/ha, scale 0 (no effect) to 100 (complete control), read-out: Plant response rating, Speedwell", "result": 15, "unit": "%"},
      {"measurement": "pest or weed control at 62 g/ha", "setting": "speedwell [2]; 62 g ai/ha, scale 0-100, read-out: Plant response rating, Speedwell", "result": 100, "unit": "%"},
      {"measurement": "pest or weed control at 125 g/ha", "setting": "speedwell [2]; 125 g ai/ha, scale 0-100, read-out: Plant response rating, Speedwell", "result": 100, "unit": "%"},
      {"measurement": "pest or weed control at 250 g/ha", "setting": "speedwell [2]; 250 g ai/ha, scale 0-100, read-out: Plant response rating, Speedwell", "result": 100, "unit": "%"},
      {"measurement": "plant injury at 31 g/ha", "setting": "spring wheat; 31 g ai/ha, scale 0 (no effect) to 100 (complete control), read-out: Plant response rating, Wheat, Spring", "result": 0, "unit": "%"},
      {"measurement": "plant injury at 62 g/ha", "setting": "spring wheat; 62 g ai/ha, scale 0-100, read-out: Plant response rating, Wheat, Spring", "result": 5, "unit": "%"},
      {"measurement": "plant injury at 125 g/ha", "setting": "spring wheat; 125 g ai/ha, scale 0-100, read-out: Plant response rating, Wheat, Spring", "result": 40, "unit": "%"},
      {"measurement": "plant injury at 250 g/ha", "setting": "spring wheat; 250 g ai/ha, scale 0-100, read-out: Plant response rating, Wheat, Spring", "result": 55, "unit": "%"},
      {"measurement": "plant injury at 31 g/ha", "setting": "winter wheat; 31 g ai/ha, scale 0 (no effect) to 100 (complete control), read-out: Plant response rating, Wheat, Winter", "result": 0, "unit": "%"},
      {"measurement": "plant injury at 62 g/ha", "setting": "winter wheat; 62 g ai/ha, scale 0-100, read-out: Plant response rating, Wheat, Winter", "result": 5, "unit": "%"},
      {"measurement": "plant injury at 125 g/ha", "setting": "winter wheat; 125 g ai/ha, scale 0-100, read-out: Plant response rating, Wheat, Winter", "result": 5, "unit": "%"},
      {"measurement": "plant injury at 250 g/ha", "setting": "winter wheat; 250 g ai/ha, scale 0-100, read-out: Plant response rating, Wheat, Winter", "result": 35, "unit": "%"},
      {"measurement": "pest or weed control at 31 g/ha", "setting": "Italian ryegrass; 31 g ai/ha", "result": 10, "unit": "%"},
      {"measurement": "pest or weed control at 62 g/ha", "setting": "Italian ryegrass; 62 g ai/ha", "result": 10, "unit": "%"},
      {"measurement": "pest or weed control at 125 g/ha", "setting": "Italian ryegrass; 125 g ai/ha", "result": 40, "unit": "%"},
      {"measurement": "pest or weed control at 250 g/ha", "setting": "Italian ryegrass; 250 g ai/ha", "result": 50, "unit": "%"},
      {"measurement": "plant injury at 31 g/ha", "setting": "oilseed rape [3]; 31 g ai/ha", "result": 65, "unit": "%"},
      {"measurement": "plant injury at 62 g/ha", "setting": "oilseed rape [3]; 62 g ai/ha", "result": 65, "unit": "%"},
      {"measurement": "plant injury at 125 g/ha", "setting": "oilseed rape [3]; 125 g ai/ha", "result": 75, "unit": "%"},
      {"measurement": "plant injury at 250 g/ha", "setting": "oilseed rape [3]; 250 g ai/ha", "result": 100, "unit": "%"},
      {"measurement": "pest or weed control at 31 g/ha", "setting": "speedwell [4]; 31 g ai/ha", "result": 100, "unit": "%"},
      {"measurement": "pest or weed control at 62 g/ha", "setting": "speedwell [4]; 62 g ai/ha", "result": 75, "unit": "%"},
      {"measurement": "pest or weed control at 125 g/ha", "setting": "speedwell [4]; 125 g ai/ha", "result": 100, "unit": "%"},
      {"measurement": "pest or weed control at 250 g/ha", "setting": "speedwell [4]; 250 g ai/ha", "result": 100, "unit": "%"},
      {"measurement": "pest or weed control at 31 g/ha", "setting": "wild oat; 31 g ai/ha", "result": 25, "unit": "%"},
      {"measurement": "pest or weed control at 62 g/ha", "setting": "wild oat; 62 g ai/ha", "result": 30, "unit": "%"},
      {"measurement": "pest or weed control at 125 g/ha", "setting": "wild oat; 125 g ai/ha", "result": 35, "unit": "%"},
      {"measurement": "pest or weed control at 250 g/ha", "setting": "wild oat; 250 g ai/ha", "result": 50, "unit": "%"},
      {"measurement": "pest or weed control at 31 g/ha", "setting": "wild radish; 31 g ai/ha", "result": 35, "unit": "%"},
      {"measurement": "pest or weed control at 62 g/ha", "setting": "wild radish; 62 g ai/ha", "result": 70, "unit": "%"},
      {"measurement": "pest or weed control at 125 g/ha", "setting": "wild radish; 125 g ai/ha", "result": 80, "unit": "%"},
      {"measurement": "pest or weed control at 250 g/ha", "setting": "wild radish; 250 g ai/ha", "result": 85, "unit": "%"},
      {"measurement": "pest or weed control at 31 g/ha", "setting": "fall panicum; [5]", "result": 20, "unit": "%"},
      {"measurement": "pest or weed control at 62 g/ha", "setting": "fall panicum; [6]", "result": 20, "unit": "%"},
      {"measurement": "pest or weed control at 125 g/ha", "setting": "fall panicum; [7]", "result": 30, "unit": "%"},
      {"measurement": "pest or weed control at 250 g/ha", "setting": "fall panicum; [8]", "result": 45, "unit": "%"},
      {"measurement": "pest or weed control at 16 g/ha", "setting": "fall panicum; [9]", "result": 10, "unit": "%"},
      {"measurement": "pest or weed control at 31 g/ha", "setting": "arrowleaf sida; [5]", "result": 70, "unit": "%"},
      {"measurement": "pest or weed control at 62 g/ha", "setting": "arrowleaf sida; [6]", "result": 80, "unit": "%"},
      {"measurement": "pest or weed control at 125 g/ha", "setting": "arrowleaf sida; [7]", "result": 85, "unit": "%"},
      {"measurement": "pest or weed control at 250 g/ha", "setting": "arrowleaf sida; [8]", "result": 90, "unit": "%"},
      {"measurement": "pest or weed control at 16 g/ha", "setting": "arrowleaf sida; [9]", "result": 65, "unit": "%"},
      {"measurement": "pest or weed control at 31 g/ha", "setting": "dayflower; [5]", "result": 35, "unit": "%"},
      {"measurement": "pest or weed control at 62 g/ha", "setting": "dayflower; [6]", "result": 50, "unit": "%"},
      {"measurement": "pest or weed control at 125 g/ha", "setting": "dayflower; [7]", "result": 70, "unit": "%"},
      {"measurement": "pest or weed control at 250 g/ha", "setting": "dayflower; [8]", "result": 100, "unit": "%"},
      {"measurement": "pest or weed control at 16 g/ha", "setting": "dayflower; [9]", "result": 20, "unit": "%"}
    ]}
  ]
}
